In ChEMBL document CHEMBL1159334, “Agastinol and agastenol, novel lignans from Agastache rugosa and their evaluation in an apoptosis inhibition assay” (J Nat Prod, 2002):
In brackets after ≈: the same amount, converted by molar mass.

Test system: U-937
Assay: Inhibition of etoposide-induced caspase 3 induction in human U937 cells after 7 hrs
Type: functional, cell-based
Conditions: U-937, 7 h

Row | Structure (SMILES) | IC50
1 | COc1cc(/C=C2/CO[C@@H](c3ccc(O)c(OC)c3)[C@@H]2COC(=O)c2ccc(O)cc2)ccc1O [AGASTENOL] | 11.4 µg/mL (≈ 23.8 µM)
2 | COc1cc(C[C@@H]2CO[C@@H](c3ccc(O)c(OC)c3)[C@@H]2COC(=O)c2ccc(O)cc2)ccc1O [AGASTINOL] | 15.2 µg/mL (≈ 31.6 µM)
